Measured values as given in patent US20100267561A1, “HERBICIDAL PYRIDAZINONE DERIVATIVES” (priority 2007, published 2010).

What was measured:
Assay type in all cases: in vivo
[1] = tested on: ducksalad (Heteranthera limosa); experiment: Test B flooded paddy test plant response; conditions: Flood (flooded paddy test), scale 0 to 100, 0 no effect, 100 complete control
Procedure, shortened: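 Paddy-water application to 2-leaf plants in pots held under 3 cm of flooding; response is a 0–100 visual control rating against controls after 13 to 15 days, and a dash marks a missing result.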

[2] = tested on: common (oilseed) sunflower (Helianthus annuus); experiment: Test B pre-/postemergence plant response; conditions: Preemergence
Procedure, shortened: (§1)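 Seeds were sown and sprayed preemergence, while plants at 2 to 18 cm (1- to 4-leaf stage) got postemergence sprays. Compounds were formulated in a non-phytotoxic solvent mixture with surfactant. After 13 to 15 days in a greenhouse, injury was rated visually against untreated controls, 0 (no effect) to 100 (complete control).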

[3] = tested on: bermudagrass (Cynodon dactylon); experiment: Test B pre-/postemergence plant response; conditions: for Bermudagrass plant response rating: 8 g ai/ha
Procedure, shortened: as §1

[4] = tested on: lambsquarters (Chenopodium album); experiment: Test B pre-/postemergence plant response; conditions: for Lambsquarters plant response rating: 8 g ai/ha
Procedure, shortened: as §1

corn (Zea mays) = experiment: Test B pre-/postemergence plant response; conditions: for Corn plant response rating: 8 g ai/ha
Procedure, shortened: as §1

soybean (Glycine max) = experiment: Test B pre-/postemergence plant response; conditions: for Soybean plant response rating: 8 g ai/ha
Procedure, shortened: as §1

[5] = tested on: wheat (Triticum aestivum); experiment: Test B pre-/postemergence plant response; conditions: for Wheat plant response rating: 8 g ai/ha
Procedure, shortened: as §1

[6] = tested on: large crabgrass (Digitaria sanguinalis); experiment: Test B pre-/postemergence plant response; conditions: for Crabgrass, Large plant response rating: 8 g ai/ha
Procedure, shortened: as §1

kochia (Kochia scoparia) = experiment: Test B pre-/postemergence plant response; conditions: for Kochia plant response rating: 8 g ai/ha
Procedure, shortened: as §1

[7] = tested on: cocklebur (Xanthium strumarium); experiment: Test B pre-/postemergence plant response; conditions: for Cocklebur plant response rating: 8 g ai/ha
Procedure, shortened: as §1

[8] = tested on: goosegrass (Eleusine indica); experiment: Test B pre-/postemergence plant response; conditions: for Goosegrass plant response rating: 8 g ai/ha
Procedure, shortened: as §1

[9] = tested on: Russian thistle (Salsola iberica); experiment: Test B pre-/postemergence plant response; conditions: Preemergence
Procedure, shortened: as §1

[10] = tested on: surinam grass (Brachiaria decumbens); experiment: Test B pre-/postemergence plant response; conditions: for Surinam Grass plant response rating: 8 g ai/ha
Procedure, shortened: as §1

[11] = tested on: common ragweed (Ambrosia elation); experiment: Test B pre-/postemergence plant response; conditions: for Ragweed plant response rating: 8 g ai/ha
Procedure, shortened: as §1

[12] = 16 g ai/ha, scale 0 to 100 (0 no effect, 100 complete control)
[13] = Postemergence, 16 g ai/ha, scale 0 to 100
[14] = Postemergence, 31 g ai/ha, scale 0 to 100, 0 no effect, 100 complete control
[15] = Postemergence, 62 g ai/ha, scale 0 to 100, 0 no effect, 100 complete control
[16] = Preemergence, 16 g ai/ha, scale 0 to 100 (0 no effect, 100 complete control)
[17] = Preemergence, 31 g ai/ha, 0 to 100 scale, 0 no effect, 100 complete control
[18] = Preemergence, 62 g ai/ha, scale 0 to 100
[19] = Preemergence, 31 g ai/ha, scale 0 to 100 (0 no effect, 100 complete control)
[20] = Preemergence, 62 g ai/ha, 0 to 100 scale, 0 no effect, 100 complete control

Cc1cc(-c2ccc(C(F)(F)F)c(F)c2)nn1-c1c(O)c(C(F)(F)F)nn(C)c1=O [Compound 44]
Plant response rating, Ducksalad ([1]; 62 g ai/ha): 0 | Plant response rating, Ducksalad ([1]; 125 g ai/ha): 70 | Plant response rating, Ducksalad ([1]; 250 g ai/ha): 70 | Plant response rating, Sunflower [2, 12]: 0 | Plant response rating, Sunflower ([2]; 62 g ai/ha, scale 0 to 100): 0 | Sunflower plant response rating ([2]; 8 g ai/ha, scale 0 to 100): 0 | Bermudagrass plant response rating ([3]; postemergence, 0-100 scale): 65 | Plant response rating, Bermudagrass [3, 13]: 90 | Plant response rating, Bermudagrass [3, 14]: 95 | Plant response rating, Bermudagrass [3, 15]: 100 | Bermudagrass plant response rating ([3]; Preemergence, scale 0 to 100 (0 no effect, 100 complete control)): 0 | Plant response rating, Bermudagrass [3, 16]: 0 | Plant response rating, Bermudagrass [3, 17]: 0 | Plant response rating, Bermudagrass [3, 18]: 0 | Lambsquarters plant response rating ([4]; postemergence, 0-100 scale): 0 | Plant response rating, Lambsquarters [4, 13]: 0 | Plant response rating, Lambsquarters [4, 14]: 0 | Plant response rating, Lambsquarters [4, 15]: 0 | Plant response rating, Lambsquarters [4, 16]: 0 | Plant response rating, Lambsquarters [4, 17]: 0 | Plant response rating, Lambsquarters [4, 18]: 0 | Lambsquarters plant response rating ([4]; Preemergence, scale 0 to 100): 0 | Corn plant response rating (corn (Zea mays); postemergence, 0-100 scale): 85 | Plant response rating, Corn (corn (Zea mays); [13]): 95 | Plant response rating, Corn (corn (Zea mays); [14]): 95 | Plant response rating, Corn (corn (Zea mays); [15]): 95 | Plant response rating, Corn (corn (Zea mays); [16]): 55 | Plant response rating, Corn (corn (Zea mays); [17]): 65 | Plant response rating, Corn (corn (Zea mays); [18]): 85 | Corn plant response rating (corn (Zea mays); Preemergence, scale 0 to 100): 0 | Soybean plant response rating (soybean (Glycine max); postemergence, 0-100 scale): 0 | Plant response rating, Soybean (soybean (Glycine max); [13]): 0 | Plant response rating, Soybean (soybean (Glycine max); [15]): 0 | Plant response rating, Soybean (soybean (Glycine max); [19]): 70 | Plant response rating, Soybean (soybean (Glycine max); [18]): 90 | Soybean plant response rating (soybean (Glycine max); Preemergence, scale 0 to 100): 0 | Wheat plant response rating ([5]; postemergence, 0-100 scale): 55 | Plant response rating, Wheat [5, 13]: 90 | Plant response rating, Wheat [5, 15]: 95 | Plant response rating, Wheat [5, 16]: 0 | Plant response rating, Wheat [5, 19]: 10 | Plant response rating, Wheat [5, 20]: 90 | Wheat plant response rating ([5]; Preemergence, scale 0 to 100): 0 | Crabgrass, Large plant response rating ([6]; postemergence, 0-100 scale): 60 | Plant response rating, Crabgrass, Large [6, 13]: 65 | Plant response rating, Crabgrass, Large [6, 14]: 90 | Plant response rating, Crabgrass, Large [6, 15]: 98 | Plant response rating, Crabgrass, Large [6, 16]: 0 | Plant response rating, Crabgrass, Large [6, 17]: 0 | Plant response rating, Crabgrass, Large [6, 18]: 0 | Crabgrass, Large plant response rating ([6]; Preemergence, scale 0 to 100): 0 | Kochia plant response rating (kochia (Kochia scoparia); postemergence, 0-100 scale): 0 | Plant response rating, Kochia (kochia (Kochia scoparia); [13]): 0 | Plant response rating, Kochia (kochia (Kochia scoparia); [14]): 0 | Plant response rating, Kochia (kochia (Kochia scoparia); [15]): 0 | Plant response rating, Kochia (kochia (Kochia scoparia); [16]): 0 | Plant response rating, Kochia (kochia (Kochia scoparia); [17]): 0 | Plant response rating, Kochia (kochia (Kochia scoparia); [18]): 100 | Kochia plant response rating (kochia (Kochia scoparia); Preemergence, scale 0 to 100): 0 | Cocklebur plant response rating ([7]; postemergence, 0-100 scale): 0 | Plant response rating, Cocklebur [7, 13]: 0 | Plant response rating, Cocklebur [7, 14]: 0 | Plant response rating, Cocklebur [7, 15]: 0 | Plant response rating, Cocklebur [7, 16]: 0 | Plant response rating, Cocklebur [7, 17]: 0 | Plant response rating, Cocklebur [7, 18]: 0 | Cocklebur plant response rating ([7]; Preemergence, scale 0 to 100): 0 | Goosegrass plant response rating ([8]; postemergence, 0-100 scale): 60 | Plant response rating, Goosegrass [8, 13]: 60 | Plant response rating, Goosegrass [8, 14]: 75 | Plant response rating, Goosegrass [8, 15]: 90 | Plant response rating, Goosegrass [8, 16]: 0 | Plant response rating, Goosegrass [8, 17]: 0 | Plant response rating, Goosegrass [8, 18]: 0 | Goosegrass plant response rating ([8]; Preemergence, scale 0 to 100): 0 | Plant response rating, Russian Thistle [9, 12]: 0 | Plant response rating, Russian Thistle ([9]; 31 g ai/ha, scale 0 to 100 (0 no effect, 100 complete control)): 0 | Plant response rating, Russian Thistle ([9]; 62 g ai/ha, scale 0 to 100): 0 | Russian Thistle plant response rating ([9]; 8 g ai/ha, scale 0 to 100): 0 | Surinam Grass plant response rating ([10]; postemergence, 0-100 scale): 98 | Plant response rating, Surinam Grass [10, 13]: 100 | Plant response rating, Surinam Grass [10, 15]: 100 | Plant response rating, Surinam Grass [10, 16]: 0 | Plant response rating, Surinam Grass [10, 19]: 0 | Plant response rating, Surinam Grass [10, 20]: 20 | Surinam Grass plant response rating ([10]; Preemergence, scale 0 to 100): 0 | Ragweed plant response rating ([11]; postemergence, 0-100 scale): 0 | Plant response rating, Ragweed [11, 13]: 0 | Plant response rating, Ragweed [11, 14]: 0 | Plant response rating, Ragweed [11, 15]: 0 | Plant response rating, Ragweed [11, 16]: 0 | Plant response rating, Ragweed [11, 19]: 0 | Plant response rating, Ragweed [11, 18]: 20 | Ragweed plant response rating ([11]; Preemergence, scale 0 to 100): 0
